Columns and labels:
mouse Mcl1 = target: T1, mouse Mcl1 (Mus musculus, UniProt P97287); assay: TR-FRET binding assay, MCL-1 orthologs
T1 construct: made in house; host or cells: E. coli BL21(DE3)-T1R
Protocol: (§1) Binding affinities for MCL-1, BCL-2, BCL-XL, BCL-W, and BCL2-A1 were determined using a time-resolved fluorescence resonance energy transfer (FRET) assay. Test compounds were serially diluted in DMSO starting at […] (20× starting concentration; 100% DMSO followed by a 1:10 dilution of the compound DMSO plate into assay buffer); 10 µL of the compound in 10% DMSO was then transferred into a 384-well plate (low-volume Corning #3673 assay plate). Glutathione S-transferase (GST)-tagged recombinant BCL-2, BCL-XL, MCL-1, BCL-W, or BCL2-A1 protein (1 nM each) were mixed with 100 nM Oregon Green™-labeled f-BAK peptide probe and 1 nM Tb-labeled anti-GST antibody were mixed. Then 10 µL of a 2× protein/probe/antibody mix was added to each well of increasing concentrations of test compound in assay buffer (20 mM potassium phosphate, pH 7.6, 50 mM NaCl, 1 mM ethylenediaminetetraacetic acid disodium salt dihydrate, 0.05% pluronic acid F-68, 1 mM DL-dithiothreitol) at room temperature (final concentrations listed in Supplementary Table S2). The samples were then mixed on a shaker for 1 min and incubated for an additional 1 h at room temperature. For each assay plate, a probe/antibody and protein/antibody/probe mixture were included as a negative and a positive control, respectively. Fluorescence was measured on the EnVision™ (Perkin Elmer) using a 340/35-nm excitation filter and 520/525- (F-Bak) and 495/510-nm (Tb-labeled anti-glutathione S-transferase [GST] antibody) emission filters. Dissociation constants were determined using Wang’s equation[35]. The time-resolved FRET assay can be performed in the presence of varying concentrations of human serum to determine apparent half-maximal inhibitory concentration after serum protein binding.
(§2) Supplementary Table S10: MCL-1 ortholog information and ABBV-467 affinity across species […]
(§3) Mouse Mus musculus Rattus Canis lupus Macaca sp.
(§4) Protein name Mcl1 Mcl1 M CL1 M CL1 […]
(§5) Amino acid sequence homology determined with NCBI BLAST (http://blast.ncbi.nlm.nih.gov). […]

rat Mcl1 = target: T2, rat Mcl1 (Rattus norvegicus, UniProt Q9Z1P3); assay: TR-FRET binding assay, MCL-1 orthologs
T2 construct: made in house; host or cells: E. coli BL21(DE3)-T1R
Protocol: as §1, §2, §3, §4, §5

NCI-H929 xenografts = assay: NCI-H929 xenograft efficacy (tumor volume, survival); format: in vivo; settings: single dose […]
Protocol: All animal studies were conducted in accordance with the guidelines approved by the Institutional Animal Care and Use Committees of AbbVie. The research protocol was approved by In Vivo Pharmacology at AbbVie prior to study initiation but was not publicly registered or disclosed. Female C.B-17 SCID-beige mice (AMO-1, OPM-2, NCI-H929, and OCI-AML2 xenografts) and female NSG mice (MV4-11-Red.Fluc systemic) were purchased from Charles River Laboratories (Wilmington, MA). Animals were housed in a light cycle-controlled room with HEPA filtration at 22 °C. Animals had nesting and climbing cage topper as the primary environmental enrichment. […] All xenograft trials were conducted using 5 to 10 mice per group, and all mice were ear tagged and monitored individually throughout the studies. […] Tumor burden in the systemic MV4-11-Red.Fluc experiment was measured using an IVIS® spectrum from PerkinElmer by taking the total photon flux of the entire dorsal side of an individual mouse. […]
For in vivo studies, maximal tumor growth inhibition (TGI) was calculated as the greatest treatment response using the following equation: Maximal TGI = (1 − mean tumor volume of the treated group/mean tumor volume of the vehicle control group) × 100. […] Data from experiments in vivo were analyzed using the student’s t-test for TGI values and the Mann–Whitney U test for TGD using Excel and GraphPad Prism. […]

[1] = target: off-target receptors, ion channels, and transporters (Homo sapiens, UniProt Q07343); assay: Off-target profiling (Supplementary Data 1); settings: read-out: PDE4B2 Human - IC50; Bioprofiling 6pt Antag; cAMP
[2] = target: off-target receptors, ion channels, and transporters (Homo sapiens, UniProt Q16288); assay: Off-target profiling (Supplementary Data 1); settings: TR-FRET Kinome; Invitrogen A-1202211.2 .025(Subs Conc)
Sequence of off-target receptors, ion channels, and transporters (Homo sapiens, UniProt Q16288) (Q16288 32-839): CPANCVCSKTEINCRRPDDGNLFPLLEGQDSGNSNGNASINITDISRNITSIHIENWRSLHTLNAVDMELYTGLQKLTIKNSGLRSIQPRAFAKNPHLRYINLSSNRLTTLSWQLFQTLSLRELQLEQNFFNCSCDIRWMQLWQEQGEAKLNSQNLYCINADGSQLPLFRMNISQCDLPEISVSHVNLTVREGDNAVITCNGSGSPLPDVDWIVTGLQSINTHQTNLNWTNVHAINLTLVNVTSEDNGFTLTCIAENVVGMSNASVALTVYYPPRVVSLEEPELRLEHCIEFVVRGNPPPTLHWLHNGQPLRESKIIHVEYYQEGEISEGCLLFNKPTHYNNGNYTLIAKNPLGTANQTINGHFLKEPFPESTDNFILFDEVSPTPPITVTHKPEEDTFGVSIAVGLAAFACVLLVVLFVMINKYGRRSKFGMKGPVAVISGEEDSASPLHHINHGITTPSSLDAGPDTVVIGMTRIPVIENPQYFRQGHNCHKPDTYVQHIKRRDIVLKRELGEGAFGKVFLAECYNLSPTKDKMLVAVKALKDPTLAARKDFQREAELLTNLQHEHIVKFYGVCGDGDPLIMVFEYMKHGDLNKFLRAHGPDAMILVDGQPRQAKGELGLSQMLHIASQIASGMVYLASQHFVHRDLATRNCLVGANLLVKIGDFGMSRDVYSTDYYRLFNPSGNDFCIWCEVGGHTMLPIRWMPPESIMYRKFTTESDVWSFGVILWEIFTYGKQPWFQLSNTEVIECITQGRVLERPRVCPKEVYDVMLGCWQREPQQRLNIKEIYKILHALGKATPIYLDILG

T1 sequence (P97287 152-308): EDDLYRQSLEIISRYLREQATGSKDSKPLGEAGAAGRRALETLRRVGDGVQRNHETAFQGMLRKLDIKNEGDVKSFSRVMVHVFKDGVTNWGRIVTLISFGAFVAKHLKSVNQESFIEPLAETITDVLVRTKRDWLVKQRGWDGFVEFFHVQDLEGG
T2 sequence (Q9Z1P3 151-307): as the sequence (P97287 152-308) above, with E1D, D3E, S26A, G71D, V81T, V111I, F116C, T123S counted along it
Sequence of off-target receptors, ion channels, and transporters (Homo sapiens, UniProt Q07343) (Q07343 whole entry): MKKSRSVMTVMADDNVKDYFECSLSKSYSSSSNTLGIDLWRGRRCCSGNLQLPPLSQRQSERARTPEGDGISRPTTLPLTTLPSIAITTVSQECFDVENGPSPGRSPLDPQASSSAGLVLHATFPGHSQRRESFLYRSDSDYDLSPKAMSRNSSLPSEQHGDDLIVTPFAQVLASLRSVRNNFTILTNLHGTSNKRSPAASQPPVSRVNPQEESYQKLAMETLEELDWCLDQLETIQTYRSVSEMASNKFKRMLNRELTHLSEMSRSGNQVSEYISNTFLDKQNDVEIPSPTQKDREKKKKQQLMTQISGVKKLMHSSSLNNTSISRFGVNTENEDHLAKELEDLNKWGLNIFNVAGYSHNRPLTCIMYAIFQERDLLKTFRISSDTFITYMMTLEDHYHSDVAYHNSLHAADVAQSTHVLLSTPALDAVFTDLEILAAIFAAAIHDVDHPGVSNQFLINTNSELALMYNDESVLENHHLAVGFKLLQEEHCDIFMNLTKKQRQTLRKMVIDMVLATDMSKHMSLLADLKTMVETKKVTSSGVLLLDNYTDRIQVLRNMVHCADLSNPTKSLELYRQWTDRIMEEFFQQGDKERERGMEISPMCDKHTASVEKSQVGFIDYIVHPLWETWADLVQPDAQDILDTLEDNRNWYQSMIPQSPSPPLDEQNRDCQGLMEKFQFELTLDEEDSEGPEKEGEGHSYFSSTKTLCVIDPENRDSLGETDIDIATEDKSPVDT

`Cc1c(Cl)c2c(Cl)c(C)c1-c1c(-c3ccc(F)cc3)sc3ncnc(c13)O[C@@H](C(=O)O)Cc1cc(ccc1OCc1ccnc(-c3ccc(OC[C@H]4COCCO4)cc3)n1)OC[C@@H](CN1CCN(C)CC1)O2` [ABBV-467] was tested, and the “affinity for the murine mcl1” value (mouse Mcl1) was “substantially reduced affinity”, the Ki (rat Mcl1) was under 0.0001 µM and the “mice with tumors remaining below 1000 mm^3 until 250 days post-treatment” value (NCI-H929 xenografts) was 40%. The IC50 [1] was over 10 µM, the TrkC - IC50 [2] was over 10 µM and the “TrkC - Ki” value [2] was over 4.65 µM.
